Each compound was assayed against mGluR4 (UniProt Q14833) (assay: mGluR4 potentiation assay: increase in response to an EC20 concentration of agonist (species not given)). Conditions: EC50 for potentiation of mGluR4; table does not state human or rat.
Format: cell-based
Summary of the method: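 Human mGluR4 was expressed in CHO cells read with a Ca2+-sensitive dye; rat mGluR4 was co-expressed with GIRK in […] read by thallium flux. Potentiation is the rise over agonist-alone response, with EC50 and maximal potentiation from non-linear fits.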

Compared with `Cn1nc(C(C)(C)O)c2ccc(Nc3n[nH]c4cccnc34)cc21` [Example 54, 2-(6-((1H-pyrazolo[4,3-b]pyridin-3-yl)amino)-1-methyl-1H-indazol-3-yl)propan-2-ol], `Cn1nc(O)c2ccc(Nc3n[nH]c4cccnc34)cc21` [Example 37, 6-((1H-pyrazolo[4,3-b]pyridin-3-yl)amino)-1-methyl-1H-indazol-3-ol] is 3.6-fold higher in EC50: 865 nM for the first, 3150 nM for the second. The first is the more potent here.

Going from `[2H]C([2H])(C)Oc1nn(C)c2cc(Nc3n[nH]c4cccnc34)ccc12` [Example 241, N-(3-(ethoxy-1,1-d2)-1-methyl-1H-indazol-6-yl)-1H-pyrazolo[4,3-b]pyridin-3-amine] to `Cn1nc(OCC2(C)COC2)c2ccc(Nc3n[nH]c4cccnc34)cc21` [Example 194, N-[1-methyl-3-[(3-methyloxetan-3-yl)methoxy]indazol-6-yl]-1H-pyrazolo[4,3-b]pyridin-3-amine], the EC50 falls from 356 nM to 146 nM (2.4-fold). The second is the more potent here.

First: Cn1nc(C2CC2)c2ccc(Nc3n[nH]c4nccnc34)cc21 [Example 4, N-(3-cyclopropyl-1-methyl-1H-indazol-6-yl)-1H-pyrazolo[3,4-b]pyrazin-3-amine]
Second: Cn1nc(C2CC2)c2ccc(Nc3n[nH]c4ncc(F)cc34)cc21 [Example 5, N-(3-cyclopropyl-1-methyl-1H-indazol-6-yl)-5-fluoro-1H-pyrazolo[3,4-b]pyridin-3-amine]
The EC50 of the first is 18-fold lower: 20 nM for the first, 364 nM for the second. The first is the more potent here.

First: CC(C)n1nc(C2CC2)c2ccc(Nc3n[nH]c4cccnc34)cc21 [Example 16, N-(3-cyclopropyl-1-isopropyl-1H-indazol-6-yl)-1H-pyrazolo[4,3-b]pyridin-3-amine]
Second: c1cnc2c(Nc3ccc4c(C5CC5)n[nH]c4c3)n[nH]c2c1 [Example 247, N-(3-cyclopropyl-1H-indazol-6-yl)-1H-pyrazolo[4,3-b]pyridin-3-amine]
The EC50 of the first is higher: > 10000 nM for the first, 452 nM for the second. The second is the more potent here.

`Cc1c2cc(Nc3n[nH]c4cccnc34)ccc2nn1C1CCCC1` [Example 68, N-(2-cyclopentyl-3-methyl-2H-indazol-5-yl)-1H-pyrazolo[4,3-b]pyridin-3-amine] and `Clc1nn(C2CCC2)c2ccc(Nc3n[nH]c4cccnc34)cc12` [Example 276, N-(3-chloro-1-cyclobutyl-1H-indazol-5-yl)-1H-pyrazolo[4,3-b]pyridin-3-amine] cannot be ordered by EC50: > 10000 nM for the first, > 10000 nM for the second.

Compared with `Cc1cc(Nc2n[nH]c3cccnc23)cc2c1cnn2C` [Example 50, N-(1,4-dimethyl-1H-indazol-6-yl)-1H-pyrazolo[4,3-b]pyridin-3-amine], `Cn1nc(Cl)c2ccc(Nc3n[nH]c4cccnc34)cc21` [Example 31, N-(3-chloro-1-methyl-1H-indazol-6-yl)-1H-pyrazolo[4,3-b]pyridin-3-amine] is 1.9-fold lower in EC50: 323 nM for the first, 171 nM for the second. The second is the more potent here.

First: c1cnc2c(Nc3cnc4cnn(CC5CCC5)c4c3)n[nH]c2c1 [Example 142, N-(1-(cyclobutylmethyl)-1H-pyrazolo[4,3-b]pyridin-6-yl)-1H-pyrazolo[4,3-b]pyridin-3-amine]
Second: c1cnc2c(Nc3cccc4c3cnn4CC3CCC3)n[nH]c2c1 [Example 34, N-(1-(cyclobutylmethyl)-1H-indazol-4-yl)-1H-pyrazolo[4,3-b]pyridin-3-amine]
The EC50 of the first is higher: > 10000 nM for the first, 4300 nM for the second. The second is the more potent here.

Going from `Cc1nn(C2CCC2)c2ncc(Nc3n[nH]c4cccnc34)cc12` [Example 158, 1-cyclobutyl-3-methyl-N-(1H-pyrazolo[4,3-b]pyridin-3-yl)pyrazolo[3,4-b]pyridin-5-amine] to `CCn1nc(C)c2cc(Nc3n[nH]c4cccnc34)cnc21` [Example 258, 1-ethyl-3-methyl-N-(1H-pyrazolo[4,3-b]pyridin-3-yl)pyrazolo[3,4-b]pyridin-5-amine], the EC50 rises from 200 nM to 480 nM (2.4-fold). The first is the more potent here.

Going from `Cn1nc(C2CC2)c2ccc(Nc3n[nH]c4cc(F)ccc34)cc21` [Example 11, N-(3-cyclopropyl-1-methyl-1H-indazol-6-yl)-6-fluoro-1H-indazol-3-amine] to `Cn1nc(C2CC2)c2ccc(Nc3n[nH]c4ccccc34)cc21` [Example 12, N-(3-cyclopropyl-1-methyl-1H-indazol-6-yl)-1H-indazol-3-amine], the EC50 falls from 4220 nM to 128 nM (33-fold).

First: Cn1ncc2c(Cl)cc(Nc3n[nH]c4ncccc34)cc21 [Example 6, N-(4-chloro-1-methyl-1H-indazol-6-yl)-1H-pyrazolo[3,4-b]pyridin-3-amine]
Second: COc1cc(Nc2n[nH]c3nccnc23)cc2c1cnn2C [Example 53, N-(4-methoxy-1-methyl-1H-indazol-6-yl)-1H-pyrazolo[3,4-b]pyrazin-3-amine]
The EC50 of the first is 4.8-fold lower: 51 nM for the first, 247 nM for the second.

First: CCCCCn1nc(C)c2cc(Nc3n[nH]c4nccnc34)ccc21 [Example 95, N-(3-methyl-1-pentyl-1H-indazol-5-yl)-1H-pyrazolo[3,4-b]pyrazin-3-amine]
Second: Cc1nn(CCC(C)Cl)c2ccc(Nc3n[nH]c4cccnc34)cc12 (stereo not shown) [Example 134, N-(1-(3-chlorobutyl)-3-methyl-1H-indazol-5-yl)-1H-pyrazolo[4,3-b]pyridin-3-amine]
The EC50 of the first is 2.2-fold lower: 35 nM for the first, 77 nM for the second. The first is the more potent here.

Going from `Cn1nc(Oc2ccc(C#N)cn2)c2c(Cl)cc(Nc3n[nH]c4cccnc34)cc21` [Example 207, 6-[4-chloro-1-methyl-6-(1H-pyrazolo[4,3-b]pyridin-3-ylamino)indazol-3-yl]oxypyridine-3-carbonitrile] to `Cn1nc(Oc2ccc(C#N)cn2)c2ccc(Nc3n[nH]c4cccnc34)cc21` [Example 237, 6-((6-((1H-pyrazolo[4,3-b]pyridin-3-yl)amino)-1-methyl-1H-indazol-3-yl)oxy)nicotinonitrile], the EC50 falls from 482 nM to 157 nM (3.1-fold).

Compared with `Cc1cc(Cn2nc(Cl)c3cc(Nc4n[nH]c5cccnc45)ccc32)no1` [Example 279, N-(3-chloro-1-((5-methylisoxazol-3-yl)methyl)-1H-indazol-5-yl)-1H-pyrazolo[4,3-b]pyridin-3-amine], `Cc1cc(Cn2ncc3cc(Nc4n[nH]c5cccnc45)ccc32)no1` [Example 103, N-(1-((5-methylisoxazol-3-yl)methyl)-1H-indazol-5-yl)-1H-pyrazolo[4,3-b]pyridin-3-amine] is 2.3-fold lower in EC50: 290 nM for the first, 125 nM for the second. The second is the more potent here.

Going from `Cn1nc(C(=O)NCCCS(C)(=O)=O)c2ccc(Nc3n[nH]c4cccnc34)cc21` [Example 169, 1-methyl-N-(3-methylsulfonylpropyl)-6-(1H-pyrazolo[4,3-b]pyridin-3-ylamino)indazole-3-carboxamide] to `CC(=O)c1nn(C)c2cc(Nc3n[nH]c4cccnc34)ccc12` [Example 21, 1-(6-((1H-pyrazolo[4,3-b]pyridin-3-yl)amino)-1-methyl-1H-indazol-3-yl)ethan-1-one], the EC50 falls from 4610 nM to 764 nM (6-fold).

Compared with `Clc1nn(CC2CC2)c2ccc(Nc3n[nH]c4cccnc34)cc12` [Example 284, N-(3-chloro-1-(cyclopropylmethyl)-1H-indazol-5-yl)-1H-pyrazolo[4,3-b]pyridin-3-amine], `Cc1nn(CC2CC(C3CC3)=NO2)c2ccc(Nc3n[nH]c4cccnc34)cc12` (stereo not shown) [Example 100, N-(1-((3-cyclopropyl-4,5-dihydroisoxazol-5-yl)methyl)-3-methyl-1H-indazol-5-yl)-1H-pyrazolo[4,3-b]pyridin-3-amine] is lower in EC50: > 10000 nM for the first, 258 nM for the second.

`Cn1nc(C(=O)N2CC[C@H](F)C2)c2ccc(Nc3n[nH]c4cccnc34)cc21` [Example 171, [(3S)-3-fluoropyrrolidin-1-yl]-[1-methyl-6-(1H-pyrazolo[4,3-b]pyridin-3-ylamino)indazol-3-yl]methanone] and `Cn1nc(C(=O)N2CCCC2)c2ccc(Nc3n[nH]c4cccnc34)cc21` [Example 173, [1-methyl-6-(1H-pyrazolo[4,3-b]pyridin-3-ylamino)indazol-3-yl]-pyrrolidin-1-yl-methanone] are within 1.5-fold of each other in EC50: 765 nM for the first, 825 nM for the second.

`Cn1nc(OC2COC2)c2ccc(Nc3n[nH]c4cccnc34)cc21` [Example 216, N-[1-methyl-3-(oxetan-3-yloxy)indazol-6-yl]-1H-pyrazolo[4,3-b]pyridin-3-amine] and `Cn1nc(C(=O)NC2CC(F)C2)c2ccc(Nc3n[nH]c4cccnc34)cc21` (stereo not shown) [Example 175, N-(3-fluorocyclobutyl)-1-methyl-6-(1H-pyrazolo[4,3-b]pyridin-3-ylamino)indazole-3-carboxamide] are within 1.5-fold of each other in EC50: 629 nM for the first, 794 nM for the second.

Going from `Cn1ncc2cc(Nc3n[nH]c4nccnc34)ccc21` [Example 84] to `Cc1noc(Cn2nc(C)c3cc(Nc4n[nH]c5cccnc45)ccc32)n1` [Example 126, N-(3-methyl-1-((3-methyl-1,2,4-oxadiazol-5-yl)methyl)-1H-indazol-5-yl)-1H-pyrazolo[4,3-b]pyridin-3-amine], the EC50 falls from 818 nM to 264 nM (3.1-fold). The second is the more potent here.

`Cc1nn(C2CCNCC2)c2ccc(Nc3n[nH]c4cccnc34)cc12` [Example 90, N-(3-methyl-1-(piperidin-4-yl)-1H-indazol-5-yl)-1H-pyrazolo[4,3-b]pyridin-3-amine] and `Cc1nn(C(C)C)c2ncc(Nc3n[nH]c4cccnc34)cc12` [Example 270, N-(1-isopropyl-3-methyl-1H-pyrazolo[3,4-b]pyridin-5-yl)-1H-pyrazolo[4,3-b]pyridin-3-amine] cannot be ordered by EC50: > 10000 nM for the first, > 30000 nM for the second.

First: Cc1nn(CCCO)c2ncc(Nc3n[nH]c4cccnc34)cc12 [Example 255, 3-[3-methyl-5-(1H-pyrazolo[4,3-b]pyridin-3-ylamino)pyrazolo[3,4-b]pyridin-1-yl]propan-1-ol]
Second: CCCn1nc(C)c2cc(Nc3n[nH]c4cccnc34)cnc21 [Example 264, 3-methyl-1-propyl-N-(1H-pyrazolo[4,3-b]pyridin-3-yl)pyrazolo[3,4-b]pyridin-5-amine]
The EC50 of the first is higher: > 30000 nM for the first, 150 nM for the second. The second is the more potent here.

`c1nc2cnn(CC3CCC3)c2cc1Nc1n[nH]c2c1CCCC2` [Example 150, 1-(cyclobutylmethyl)-N-(4,5,6,7-tetrahydro-1H-indazol-3-yl)-1H-pyrazolo[4,3-b]pyridin-6-amine] and `Cc1nn(C(C)C)c2cc(Nc3n[nH]c4c3CCCC4)ccc12` [Example 20, 1-isopropyl-3-methyl-N-(4,5,6,7-tetrahydro-1H-indazol-3-yl)-1H-indazol-6-amine] cannot be ordered by EC50: > 10000 nM for the first, > 10000 nM for the second.

Compound `Cn1nc(-c2ccc(=O)[nH]c2)c2ccc(Nc3n[nH]c4cccnc34)cc21` [Example 179, 5-[1-methyl-6-(1H-pyrazolo[4,3-b]pyridin-3-ylamino)indazol-3-yl]-1H-pyridin-2-one] has an EC50 of 2720 nM.

From patent publication US10526323B2, “Indazole and azaindazole substituted compounds as mGluR4 allosteric potentiators, compositions, and methods of treating neurological dysfunction” (Vanderbilt University, priority 2015, dated 2020)
